{"source": "patent US20250051686A1", "about": "“SURFACTANTS FOR CLEANING PRODUCTS” (AdvanSix Resins & Chemicals LLC, priority 2023, published 2025)", "test_in_all_cases": "Antimicrobial minimum inhibitory concentration (MIC), serial dilution", "key": {"[1]": {"tested_on": "P. aeruginosa (9027)", "assay_type": "cell-based, Pseudomonas aeruginosa", "settings": "24 hours; serial dilution 1.7 fold; 400 ppm max", "excerpt": "(§1) The antimicrobial properties of surfactants can be examined using known methods and standard protocols, and various types of microorganisms as treatment targets. As a general matter, standard protocols can be developed to assess antimicrobial minimum inhibitory concentration (MIC) using serial dilution method, giving concentration-dependent microorganism growth inhibition measurements against gram positive (e.g., Streptococcus mutans, which is anaerobic, and Staphylococcus aureus, which is usually aerobic but can grow also anaerobically), gram negative (e.g., Escherichia coli, which is anaerobic, or Pseudomonas aeruginosa, which is aerobic). Bacteria are propagated overnight in a suitable growth medium, e.g., a Tryptic Soy Broth. Prior to testing, the concentrations of the test organisms are established using a spectrophotometer that can measure optical density. Those bacterial samples are then diluted to about 1E3 to 1E4 CFU/mL. […] Test measurements are conducted on replicate 96-well plates, and reported as the rounded whole number average of the determined MIC. […] Measurement variability is then reported based on the determined average in the form of MIC+/−."}, "[2]": {"tested_on": "E. coli (8739)", "assay_type": "cell-based, Escherichia coli", "settings": "24 hours; serial dilution 1.7 fold; 400 ppm max (ADBAC control 20 ppm max)", "excerpt": "as §1"}, "[3]": {"tested_on": "S. aureus (6538)", "assay_type": "cell-based, Staphylococcus aureus", "settings": "24 hours; serial dilution 1.7 fold; 400 ppm max (ADBAC control 20 ppm max)", "excerpt": "as §1"}, "[4]": {"tested_on": "S. mutans (25715)", "assay_type": "cell-based, Streptococcus mutans", "settings": "24 hours; serial dilution 1.7 fold; 400 ppm max (ADBAC control 20 ppm max)", "excerpt": "as §1"}}, "data": [{"smiles": "CCCCCCCCCCCCCC[N+](C)(C)Cc1ccccc1.[Cl-]", "note": "[ADBAC control]", "values": [{"measurement": "MIC Result", "setting": "[1]", "value": "48 +/− 20 ppm"}, {"measurement": "MIC Result", "setting": "[2]", "value": "16 +/− 7 ppm"}, {"measurement": "MIC Result", "setting": "[3]", "value": "7 +/− 3 ppm"}, {"measurement": "MIC Result", "setting": "[4]", "value": "7 +/− 3 ppm"}]}]}
